Results: ChEMBL document CHEMBL1138365, “Application of 3D-QSAR for identification of descriptors defining bioactivity of antimicrobial peptides” (2007)
Converted amounts (≈) assume the structure as drawn. Starred links: 1 amine or outer side, 2 acyl side, 3 side chain; linkers in the order of their positions; H or OH if unused. Non-standard residues stand in square brackets, D forms with d. Residues, ends and D or L forms follow the SMILES beside them. ξ: configuration not given here. *: point of attachment. Pro(3ξ,4ξ-(CH2)4) = O=C(O)[C@H]1NCC2CCCCC21; Oic = O=C(O)[C@@H]1C[C@@H]2CCCC[C@@H]2N1; Phe(4-F) = N[C@@H](Cc1ccc(F)cc1)C(=O)O; X1 = O=C([C@H]1C2CCCCC2CN1[*:1])[*:2]; Ethylenediamine = C(CN[*:2])N[*:1]; Tic = O=C(O)[C@@H]1Cc2ccccc2CN1; dTic = O=C(O)[C@H]1Cc2ccccc2CN1; dOrn = NCCC[C@@H](N)C(=O)O; Orn = NCCC[C@H](N)C(=O)O; NH(CH2)3NH2 = NCCCN*

Columns and labels:
Staphylococcus aureus = assay: Antibacterial activity against Staphylococcus aureus; format: functional
[1] = system: Mycolicibacterium fortuitum; assay: Antibacterial activity against Mycobacterium ranae; format: functional

| SMILES | MIC (Staphylococcus aureus) [µM] | MIC [1] [µM] |
| --- | --- | --- |
| CC(=O)N[C@@H](Cc1ccccc1)C(=O)N1Cc2ccccc2C[C@H]1C(=O)N1CC2CCCCC2[C@H]1C(=O)N[C@@H](CCCCN)C(=O)N1Cc2ccccc2C[C@H]1C(=O)N1CC2CCCCC2[C@H]1C(=O)N[C@@H](Cc1ccccc1)C(=O)N1Cc2ccccc2C[C@H]1C(=O)N1CC2CCCCC2[C@H]1C(=O)N[C@@H](CCCCN)C(=O)N1Cc2ccccc2C[C@H]1C(=O)N[C@@H](CCCCN)C(=O)N[C@@H](CCCCN)C(=O)N[C@@H](CCCCN)C(=O)N[C@@H](CCCCN)C(N)=O (stereo partly drawn) (Ac-F[Tic][Pro(3ξ,4ξ-(CH2)4)]K[Tic][Pro(3ξ,4ξ-(CH2)4)]F[Tic][Pro(3ξ,4ξ-(CH2)4)]K[Tic]KKKK-NH2) | 3 (≈ 6.64 µg/mL) | 30 (≈ 66.4 µg/mL) |
| CC(=O)N[C@@H](Cc1ccccc1)C(=O)N1Cc2ccccc2C[C@H]1C(=O)N1CC2CCCCC2[C@H]1C(=O)N[C@@H](CCCCN)C(=O)N1Cc2ccccc2C[C@H]1C(=O)N1CC2CCCCC2[C@H]1C(=O)N[C@@H](Cc1ccccc1)C(=O)N1Cc2ccccc2C[C@H]1C(=O)N1CC2CCCCC2[C@H]1C(=O)N[C@@H](CCCCN)C(=O)N1Cc2ccccc2C[C@H]1C(=O)N[C@@H](CCCCN)C(=O)N[C@@H](CCCCN)C(=O)N[C@@H](CCCCN)C(=O)N[C@@H](CCCCN)C(=O)N[C@@H](CCCCN)C(=O)N[C@@H](CCCCN)C(N)=O (stereo partly drawn) (Ac-F[Tic][Pro(3ξ,4ξ-(CH2)4)]K[Tic][Pro(3ξ,4ξ-(CH2)4)]F[Tic][Pro(3ξ,4ξ-(CH2)4)]K[Tic]KKKKKK-NH2) | 3 (≈ 7.41 µg/mL) | 3 (≈ 7.41 µg/mL) |
| CC(=O)NCC(=O)N[C@@H](Cc1ccccc1)C(=O)NCC(=O)N1CC2CCCCC2[C@H]1C(=O)NCC(=O)N[C@@H](CCCCN)C(=O)NCC(=O)N1CC2CCCCC2[C@H]1C(=O)NCC(=O)N[C@@H](Cc1ccccc1)C(=O)NCC(=O)N1CC2CCCCC2[C@H]1C(=O)NCC(=O)N[C@@H](CCCCN)C(=O)NCC(=O)N[C@@H](CCCCN)C(=O)N[C@@H](CCCCN)C(=O)N[C@@H](CCCCN)C(=O)N[C@@H](CCCCN)C(N)=O (stereo partly drawn) (Ac-GFG[Pro(3ξ,4ξ-(CH2)4)]GKG[Pro(3ξ,4ξ-(CH2)4)]GFG[Pro(3ξ,4ξ-(CH2)4)]GKGKKKK-NH2) | – | 100 (≈ 203 µg/mL) |
| CC(=O)NCC(=O)N[C@@H](Cc1ccccc1)C(=O)N1CC2CCCCC2[C@H]1C(=O)NCC(=O)N[C@@H](CCCCN)C(=O)N1CC2CCCCC2[C@H]1C(=O)NCC(=O)N[C@@H](Cc1ccccc1)C(=O)N1CC2CCCCC2[C@H]1C(=O)NCC(=O)N[C@@H](CCCCN)C(=O)N[C@@H](CCCCN)C(=O)N[C@@H](CCCCN)C(=O)N[C@@H](CCCCN)C(=O)N[C@@H](CCCCN)C(N)=O (stereo partly drawn) (Ac-GF[Pro(3ξ,4ξ-(CH2)4)]GK[Pro(3ξ,4ξ-(CH2)4)]GF[Pro(3ξ,4ξ-(CH2)4)]GKKKKK-NH2) | – | 100 (≈ 180 µg/mL) |
| CC(=O)NCC(=O)N[C@@H](Cc1ccccc1)C(=O)N1Cc2ccccc2C[C@H]1C(=O)NCC(=O)NCC(=O)N[C@@H](CCCCN)C(=O)N1Cc2ccccc2C[C@H]1C(=O)NCC(=O)NCC(=O)N[C@@H](Cc1ccccc1)C(=O)N1Cc2ccccc2C[C@H]1C(=O)NCC(=O)NCC(=O)N[C@@H](CCCCN)C(=O)N1Cc2ccccc2C[C@H]1C(=O)N[C@@H](CCCCN)C(=O)N[C@@H](CCCCN)C(=O)N[C@@H](CCCCN)C(=O)N[C@@H](CCCCN)C(N)=O (Ac-GF[Tic]GGK[Tic]GGF[Tic]GGK[Tic]KKKK-NH2) | – | 30 (≈ 64.8 µg/mL) |
| CC(=O)NCC(=O)N[C@@H](Cc1ccccc1)C(=O)N1Cc2ccccc2C[C@H]1C(=O)NCC(=O)N[C@@H](CCCCN)C(=O)N1Cc2ccccc2C[C@H]1C(=O)NCC(=O)N[C@@H](Cc1ccccc1)C(=O)N1Cc2ccccc2C[C@H]1C(=O)NCC(=O)N[C@@H](CCCCN)C(=O)N1Cc2ccccc2C[C@H]1C(=O)N[C@@H](CCCCN)C(=O)N[C@@H](CCCCN)C(=O)N[C@@H](CCCCN)C(=O)N[C@@H](CCCCN)C(N)=O (Ac-GF[Tic]GK[Tic]GF[Tic]GK[Tic]KKKK-NH2) | – | 30 (≈ 59.6 µg/mL) |
| CC(=O)NCC(=O)N[C@@H](Cc1ccccc1)C(=O)N1Cc2ccccc2C[C@H]1C(=O)N1[C@H](C(=O)NCC(=O)N[C@@H](CCCCN)C(=O)N2Cc3ccccc3C[C@H]2C(=O)N2[C@H](C(=O)NCC(=O)N[C@@H](Cc3ccccc3)C(=O)N3Cc4ccccc4C[C@H]3C(=O)N3[C@H](C(=O)NCC(=O)N[C@@H](CCCCN)C(=O)N4Cc5ccccc5C[C@H]4C(=O)N[C@@H](CCCCN)C(=O)N[C@@H](CCCCN)C(=O)N[C@@H](CCCCN)C(=O)N[C@@H](CCCCN)C(=O)NCCN)C[C@@H]4CCCC[C@@H]43)C[C@@H]3CCCC[C@@H]32)C[C@@H]2CCCC[C@@H]21 (Ac-GF[Tic][Oic]GK[Tic][Oic]GF[Tic][Oic]GK[Tic]KKKK-Ethylenediamine) | 3 (≈ 7.45 µg/mL) | 10 (≈ 24.8 µg/mL) |
| CC(=O)NCC(=O)N[C@@H](Cc1ccccc1)C(=O)N1Cc2ccccc2C[C@H]1C(=O)N1[C@H](C(=O)NCC(=O)N[C@@H](CCCCN)C(=O)N2Cc3ccccc3C[C@H]2C(=O)N2[C@H](C(=O)NCC(=O)N[C@@H](Cc3ccccc3)C(=O)N3Cc4ccccc4C[C@H]3C(=O)N3[C@H](C(=O)NCC(=O)N[C@@H](CCCCN)C(=O)N4Cc5ccccc5C[C@H]4C(=O)N[C@@H](CCCCN)C(=O)N[C@@H](CCCCN)C(=O)N[C@@H](CCCCN)C(=O)N[C@@H](CCCCN)C(=O)NCCCN)C[C@@H]4CCCC[C@@H]43)C[C@@H]3CCCC[C@@H]32)C[C@@H]2CCCC[C@@H]21 (Ac-GF[Tic][Oic]GK[Tic][Oic]GF[Tic][Oic]GK[Tic]KKKK-{NH(CH2)3NH2}) | 10 (≈ 25 µg/mL) | 10 (≈ 25 µg/mL) |
| CC(=O)NCC(=O)N[C@@H](Cc1ccccc1)C(=O)N1Cc2ccccc2C[C@H]1C(=O)N1CC2CCCCC2[C@H]1C(=O)NCC(=O)N[C@@H](CCCCN)C(=O)N1Cc2ccccc2C[C@H]1C(=O)N1CC2CCCCC2[C@H]1C(=O)NCC(=O)N[C@@H](Cc1ccccc1)C(=O)N1Cc2ccccc2C[C@H]1C(=O)N1CC2CCCCC2[C@H]1C(=O)NCC(=O)N[C@@H](CCCCN)C(=O)N1Cc2ccccc2C[C@H]1C(=O)N[C@@H](CCCCN)C(=O)N[C@@H](CCCCN)C(=O)N[C@@H](CCCCN)C(=O)N[C@@H](CCCCN)C(N)=O (stereo partly drawn) (Ac-GF[Tic][Pro(3ξ,4ξ-(CH2)4)]GK[Tic][Pro(3ξ,4ξ-(CH2)4)]GF[Tic][Pro(3ξ,4ξ-(CH2)4)]GK[Tic]KKKK-NH2) | 3 (≈ 7.32 µg/mL) | 10 (≈ 24.4 µg/mL) |
| CC(=O)NCC(=O)N[C@@H](Cc1ccccc1)C(=O)N1Cc2ccccc2C[C@H]1C(=O)N1CC2CCCCC2[C@H]1C(=O)NCC(=O)N[C@@H](CCCCN)C(=O)N1Cc2ccccc2C[C@H]1C(=O)N1CC2CCCCC2[C@H]1C(=O)NCC(=O)N[C@@H](Cc1ccccc1)C(=O)N1Cc2ccccc2C[C@H]1C(=O)N1CC2CCCCC2[C@H]1C(=O)NCC(=O)N[C@@H](CCCCN)C(=O)N1Cc2ccccc2C[C@H]1C(=O)N[C@@H](CCCCN)C(=O)N[C@@H](CCCCN)C(=O)N[C@@H](CCCCN)C(=O)N[C@@H](CCCCN)C(=O)N[C@@H](CCCCN)C(N)=O (stereo partly drawn) (Ac-GF[Tic][Pro(3ξ,4ξ-(CH2)4)]GK[Tic][Pro(3ξ,4ξ-(CH2)4)]GF[Tic][Pro(3ξ,4ξ-(CH2)4)]GK[Tic]KKKKK-NH2) | 3 (≈ 7.71 µg/mL) | 3 (≈ 7.71 µg/mL) |
| CC(=O)NCC(=O)N[C@@H](Cc1ccccc1)C(=O)N1Cc2ccccc2C[C@H]1C(=O)N1CC2CCCCC2[C@H]1C(=O)NCC(=O)N[C@@H](CCCCN)C(=O)N1Cc2ccccc2C[C@H]1C(=O)N1CC2CCCCC2[C@H]1C(=O)NCC(=O)N[C@@H](Cc1ccccc1)C(=O)N1Cc2ccccc2C[C@H]1C(=O)N1CC2CCCCC2[C@H]1C(=O)NCC(=O)N[C@@H](CCCCN)C(=O)N1Cc2ccccc2C[C@H]1C(=O)N[C@@H](CCCN)C(=O)N[C@@H](CCCN)C(=O)N[C@@H](CCCN)C(=O)N[C@@H](CCCN)C(N)=O (stereo partly drawn) (Ac-GF[Tic][Pro(3ξ,4ξ-(CH2)4)]GK[Tic][Pro(3ξ,4ξ-(CH2)4)]GF[Tic][Pro(3ξ,4ξ-(CH2)4)]GK[Tic][Orn][Orn][Orn][Orn]-NH2) | 10 (≈ 23.8 µg/mL) | 10 (≈ 23.8 µg/mL) |
| CC(=O)NCC(=O)N[C@@H](Cc1ccccc1)C(=O)N1Cc2ccccc2C[C@H]1C(=O)N1CC2CCCCC2[C@@H]1C(=O)NCC(=O)N[C@H](CCCN)C(=O)N1Cc2ccccc2C[C@@H]1C(=O)N1CC2CCCCC2[C@H]1C(=O)NCC(=O)N[C@H](Cc1ccccc1)C(=O)N1Cc2ccccc2C[C@@H]1C(=O)N1CC2CCCCC2[C@@H]1C(=O)NCC(=O)N[C@H](CCCN)C(=O)N1Cc2ccccc2C[C@@H]1C(=O)N[C@H](CCCN)C(=O)N[C@H](CCCN)C(=O)N[C@H](CCCN)C(=O)N[C@H](CCCN)C(N)=O (stereo partly drawn) (Ac-GF[Tic][X1]G[dOrn][dTic][Pro(3ξ,4ξ-(CH2)4)]G[dF][dTic][X1]G[dOrn][dTic][dOrn][dOrn][dOrn][dOrn]-NH2) | 3 (≈ 7.07 µg/mL) | 10 (≈ 23.6 µg/mL) |
| CC(=O)NCC(=O)N[C@@H](Cc1ccc(F)cc1)C(=O)N1Cc2ccccc2C[C@H]1C(=O)N1CC2CCCCC2[C@H]1C(=O)NCC(=O)N[C@@H](CCCCN)C(=O)N1Cc2ccccc2C[C@H]1C(=O)N1CC2CCCCC2[C@H]1C(=O)NCC(=O)N[C@@H](Cc1ccc(F)cc1)C(=O)N1Cc2ccccc2C[C@H]1C(=O)N1CC2CCCCC2[C@H]1C(=O)NCC(=O)N[C@@H](CCCCN)C(=O)N1Cc2ccccc2C[C@H]1C(=O)N[C@@H](CCCCN)C(=O)N[C@@H](CCCCN)C(=O)N[C@@H](CCCCN)C(=O)N[C@@H](CCCCN)C(N)=O (stereo partly drawn) (Ac-G[Phe(4-F)][Tic][Pro(3ξ,4ξ-(CH2)4)]GK[Tic][Pro(3ξ,4ξ-(CH2)4)]G[Phe(4-F)][Tic][Pro(3ξ,4ξ-(CH2)4)]GK[Tic]KKKK-NH2) | 10 (≈ 24.8 µg/mL) | 3 (≈ 7.43 µg/mL) |
| CC(C)C[C@H](NC(=O)CNC(=O)[C@H](CCCCN)NC(=O)CN)C(=O)N1Cc2ccccc2C[C@H]1C(=O)N1CC2CCCCC2[C@H]1C(=O)NCC(=O)N[C@@H](CCCCN)C(=O)N1Cc2ccccc2C[C@H]1C(=O)N1CC2CCCCC2[C@H]1C(=O)NCC(=O)N[C@@H](Cc1ccccc1)C(=O)N1Cc2ccccc2C[C@H]1C(=O)N1CC2CCCCC2[C@H]1C(=O)NCC(=O)N[C@@H](CCCCN)C(=O)N1Cc2ccccc2C[C@H]1C(=O)N1CC2CCCCC2[C@H]1C(=O)NCC(=O)N[C@@H](Cc1ccccc1)C(=O)N1Cc2ccccc2C[C@H]1C(=O)N1CC2CCCCC2[C@H]1C(=O)NCC(=O)N[C@@H](CCCCN)C(=O)N1Cc2ccccc2C[C@H]1C(=O)N1CC2CCCCC2[C@H]1C(=O)NCC(=O)N[C@@H](CCCCN)C(=O)N[C@@H](CCCNC(=N)N)C(N)=O (stereo partly drawn) (H-GKGL[Tic][Pro(3ξ,4ξ-(CH2)4)]GK[Tic][Pro(3ξ,4ξ-(CH2)4)]GF[Tic][Pro(3ξ,4ξ-(CH2)4)]GK[Tic][Pro(3ξ,4ξ-(CH2)4)]GF[Tic][Pro(3ξ,4ξ-(CH2)4)]GK[Tic][Pro(3ξ,4ξ-(CH2)4)]GKR-NH2) | 10 (≈ 35.4 µg/mL) | – |
